Assay results reported in patent US20210283098A1, “Methods and Compositions for Treating Pain and Itch” (YISSUM RESEARCH DEVELOPMENT COMPANY OF THE HEBREW …, priority 2018, published 2021).
Read-outs that look alike come from different tables or passages of the source.

Key:
[1] = test system: TRPV1-HEK-293 cells; details: 1% QX-314, 24 hour treatment; Stueber et al., Anesthesiology, 2016; cited from earlier work
[2] = biological target: T1, TRPV1 channels (Homo sapiens, UniProt Q8NER1); test: Calcium imaging (Fura-2) in HEK-293 cells stably expressing hTRPV1; type: cell-based; details: hTRPV1-HEK-293; chloroprocaine 1-5 mM bath applied 120 s; capsaicin short (5 s) focal application
T1 construct: expressed in transfected cells
Experimental: To that end, we performed calcium imaging experiments on HEK-293 cells which stably express TRPV1 and TRPA1 using HEK-293t cells for control. The cells were cultured in standard DMEM with 10% FBS, 100 U/ml penicillin and 100 μg/ml streptomycin and 2 mM Glutamax. 5 μg/ml blasticidin and 0.35% Zeocin were added for stable expression of hTRPV1 and for induction tetracycline 0.1 μg/ml was added to the medium 16 to 24 hours prior to experiments. Cells were cultivated at 37° C. and 5% CO2 and prepared on Poly-D-Lysin coated coverslips and were loaded with Fura-2 AM (stock in DMSO), for 45-60 minutes in a bath solution composed of (in mM): 145 NaCl, 5 KCl, 2 CaCl2, 1 MgCl2, 10 Glucose, 10 HEPES. They were then rinsed for 45-60 minutes for de-esterification of intracellular AM esters. Intracellular [Ca^2+]i was measured fluoroimetrically as ratiometric excitation at 340 nm and 380 nm (ΔF340/380, emission collected at 510 nm) using an inverted microscope (Nikon Eclipse Ti), equipped with an Epi-Fl attachment; perfect focus system (Nikon, Japan) and Exi Aqua monochromator (QImaging). […] A PV-820 Pneumatic PicoPump (WPI) was used for short (5 s) focal applications of capsaicin. Immediately after the puff application, capsaicin was washed out by perfusing with external solution.

[3] = test system: male Sprague-Dawley rats; test: Motor function score after peri-sciatic injection; type: in vivo, rat
[4] = test system: male Sprague-Dawley rats; test: Thermal paw withdrawal latency from radiant heat source (Hargreaves) after peri-sciatic injection; type: in vivo, rat
[5] = test system: TRPV1-HEK-293 cells; test: Cell viability by double staining with PI and FITC annexin V; type: cell-based
Experimental: Similar treatment with 1 μg/μl capsaicin lead, after 24 hours, to death of more than 50% of cells. […] Representative of 5 experiments. FIG. 4B is a bar graph summarizing the number of dead TRPV1-HEK-293 cells without any treatment (white), treated with 2% chloroprocaine (grey) or 1 μg/μl capsaicin (black) at the indicated time points.

[6] = biological target: cannabinoid CB2 receptor (Homo sapiens, UniProt P34972); details: cited from earlier work
[7] = cited from earlier work

T1 sequence (Q8NER1 whole entry): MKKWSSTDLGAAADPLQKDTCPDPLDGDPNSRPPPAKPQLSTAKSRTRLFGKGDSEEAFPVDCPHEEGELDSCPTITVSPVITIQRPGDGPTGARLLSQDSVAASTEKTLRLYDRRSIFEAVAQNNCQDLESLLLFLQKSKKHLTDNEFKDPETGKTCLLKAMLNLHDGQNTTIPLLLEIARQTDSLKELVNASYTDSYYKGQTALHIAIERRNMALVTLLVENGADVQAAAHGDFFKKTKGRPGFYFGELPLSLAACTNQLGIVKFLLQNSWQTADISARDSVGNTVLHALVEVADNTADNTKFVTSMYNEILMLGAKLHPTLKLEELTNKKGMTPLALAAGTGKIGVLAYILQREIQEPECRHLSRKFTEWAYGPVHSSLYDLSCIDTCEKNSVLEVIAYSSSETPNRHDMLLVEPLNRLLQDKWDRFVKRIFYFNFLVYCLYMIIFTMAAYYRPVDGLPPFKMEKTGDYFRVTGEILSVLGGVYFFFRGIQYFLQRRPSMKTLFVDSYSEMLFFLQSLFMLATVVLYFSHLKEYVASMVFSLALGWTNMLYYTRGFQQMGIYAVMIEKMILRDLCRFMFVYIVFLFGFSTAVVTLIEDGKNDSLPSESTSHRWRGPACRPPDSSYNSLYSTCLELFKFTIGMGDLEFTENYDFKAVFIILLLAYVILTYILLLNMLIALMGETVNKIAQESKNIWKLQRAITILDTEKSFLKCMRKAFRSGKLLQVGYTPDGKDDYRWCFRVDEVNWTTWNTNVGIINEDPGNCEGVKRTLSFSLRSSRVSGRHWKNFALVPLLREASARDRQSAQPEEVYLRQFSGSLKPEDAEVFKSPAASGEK
cannabinoid CB2 receptor, sequence (P34972 whole entry): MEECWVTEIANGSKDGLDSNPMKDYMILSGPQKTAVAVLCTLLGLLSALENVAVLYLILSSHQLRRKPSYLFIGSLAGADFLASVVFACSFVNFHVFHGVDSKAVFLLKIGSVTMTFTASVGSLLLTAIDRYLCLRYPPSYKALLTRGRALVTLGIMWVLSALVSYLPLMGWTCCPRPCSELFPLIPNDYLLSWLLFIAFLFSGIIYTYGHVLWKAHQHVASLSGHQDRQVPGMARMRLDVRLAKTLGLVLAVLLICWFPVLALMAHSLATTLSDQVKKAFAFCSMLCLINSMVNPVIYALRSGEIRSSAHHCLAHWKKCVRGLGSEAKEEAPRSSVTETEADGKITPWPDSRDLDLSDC

## CC[N+](CC)(CC)CC(=O)Nc1c(C)cccc1C [QX-314]
[1]
  cell death: 55%

## CCN(CC)CCOC(=O)c1ccc(N)cc1Cl [chloroprocaine]
[2]
  change in intracellular calcium (Fura-2 fluorescence): does not induce calcium influx
[3]; Example 2, peri-sciatic injection, 0.5% chloroprocaine alone
  duration of motor block: 30 min
[3]; Example 6, peri-sciatic, 0.5% chloroprocaine with 1% CBD or with vehicle for CBD
  duration of motor block: 30 min
[4]; 0.5% chloroprocaine alone, same motor and pain block
  differential block: no differential block
[4]; Example 2, peri-sciatic, 0.5% chloroprocaine, 1 μg/μl capsaicin, 52° C.
  effect on response to noxious heat (PWL normalized to baseline): does not affect the response to noxious heat
[4]; Example 6, 0.5% chloroprocaine with vehicle for CBD
  duration of inhibition of response to noxious heat: about 30 min
[5]; 2% chloroprocaine, 24 hours treatment
  cell death: does not cause cell death

## C=C(C)[C@@H]1CCC(C)=C[C@H]1c1c(O)cc(CCCCC)cc1O [CBD, 2-[(1R,6R)-6-isopropenyl-3-methylcyclohex-2-en-1-yl]-5-pentylbenzene-1,3-diol]
[3]; Example 6, 1% CBD alone
  effect on response to noxious stimuli and motor abilities: did not affect either response to noxious stimuli or motor abilities at all
[4]; Example 6, saline with 1% CBD
  effect on pain behavior: did not affect pain behavior
[6]
  affinity for CB2 receptor: very low affinity

## CCCCNc1ccc(C(=O)OCCN(C)C)cc1 [tetracaine]
[7]
  pKa: 8.2

## COc1cc(CNC(=O)CCCC/C=C/C(C)C)ccc1O [capsaicin]
[2]
  change in intracellular calcium (Fura-2 fluorescence): substantial increase in FURA-2 fluorescence
[5]; 1 μg/μl capsaicin, 24 hours
  death of cells: more than 50%
